In ChEMBL document CHEMBL3638589, “Tricyclic derivative or pharmaceutically acceptable salts thereof, preparation method thereof, and pharmaceutical composition containing the same” (2014):
pIC50: −log10 of the molar value.

target: Poly [ADP-ribose] polymerase 1 (Homo sapiens, UniProt P09874); assay: Enzyme Inhibitory Assay: The activity of the compounds according to the present invention to inhibit the PARP-1 enzyme was examined using a PARP Assay kit (4671-096-K) purchased from Trevigen. The assay was performed following a modified previously reported method by Lee et al [Methods Find, Exp. Clin. Pharmacol., 27, 617-622, 2005].Histone was coated on 384-well plate, which is a small volume PS plate (784101) of Greiner Bio-One, and left at 25 C. for 2 hours. After that, the plate was rinsed four times with PBS (7.5 mM Na2HPO4, 2.5 mM NaH2PO4, 145 mM NaCl, pH 7.4), and in order to prevent non-specific reaction, the Strep-diluent (provided from kit of Trevigen) was added and left at 25 C. for one hour. After one hour, the plate was again rinsed with PBS four times, and the compounds of the Examples in various concentrations were put into reactant containing PARP-1 enzyme (0.12 unit/well), 2x PARP cocktail.
Sequence (P09874 whole entry): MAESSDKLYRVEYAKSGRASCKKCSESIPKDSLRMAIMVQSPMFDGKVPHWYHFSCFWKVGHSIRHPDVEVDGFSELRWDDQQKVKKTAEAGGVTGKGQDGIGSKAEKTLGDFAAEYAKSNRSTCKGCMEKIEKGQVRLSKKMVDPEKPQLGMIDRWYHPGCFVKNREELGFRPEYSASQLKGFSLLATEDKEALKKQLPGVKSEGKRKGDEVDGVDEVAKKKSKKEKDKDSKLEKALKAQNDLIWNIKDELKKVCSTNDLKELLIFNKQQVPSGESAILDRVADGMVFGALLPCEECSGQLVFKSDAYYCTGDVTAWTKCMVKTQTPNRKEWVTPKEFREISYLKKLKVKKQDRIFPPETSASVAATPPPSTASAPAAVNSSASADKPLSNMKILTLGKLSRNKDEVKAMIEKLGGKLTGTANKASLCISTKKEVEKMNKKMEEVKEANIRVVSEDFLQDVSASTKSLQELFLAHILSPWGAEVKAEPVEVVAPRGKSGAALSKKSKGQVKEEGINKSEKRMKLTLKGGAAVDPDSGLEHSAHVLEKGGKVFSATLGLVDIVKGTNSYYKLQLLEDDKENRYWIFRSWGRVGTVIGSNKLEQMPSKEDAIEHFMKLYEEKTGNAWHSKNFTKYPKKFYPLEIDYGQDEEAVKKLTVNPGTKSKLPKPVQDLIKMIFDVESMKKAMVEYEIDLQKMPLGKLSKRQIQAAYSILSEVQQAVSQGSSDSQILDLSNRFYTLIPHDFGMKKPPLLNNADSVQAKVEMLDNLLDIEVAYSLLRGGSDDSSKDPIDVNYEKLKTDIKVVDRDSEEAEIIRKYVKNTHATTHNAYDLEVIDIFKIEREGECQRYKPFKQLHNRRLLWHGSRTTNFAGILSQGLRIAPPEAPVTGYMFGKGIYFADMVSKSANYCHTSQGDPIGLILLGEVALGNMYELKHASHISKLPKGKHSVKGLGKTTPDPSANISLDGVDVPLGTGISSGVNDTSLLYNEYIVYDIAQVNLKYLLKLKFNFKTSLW

SMILES | pIC50
CN(C)CCOc1ccc2c3c(c(=O)[nH]c2c1)CCCN3 | 5.79
CN(C)Cc1cc(O)c2c3c(c(=O)[nH]c2c1)CCCN3 | 6.12
COc1cc(C[N+](C)(C)C2CCCC2)cc2[nH]c(=O)c3c(c12)NCCC3 | 6.54
